Here are results for 22 compounds from US9944618B2, “Inhibiting neurotransmitter reuptake” (Mayo Foundation for Medical Education and Research, priority 2013, dated 2018).

Structures are written as SMILES. Where two headings read alike, the source gives them in different places. Where only a bound is given, the exact number is not on record here.

In data set [1] the target is CYP2D6 (Homo sapiens (Human), UniProt P10635). Nature of the data set: Cytochrome P450 inhibition assay, recombinant CYP2D6 (MAMC substrate). The data set is classed as in vitro ADME. As to conditions: recombinant enzyme.
Chain of CYP2D6 (P10635 whole entry): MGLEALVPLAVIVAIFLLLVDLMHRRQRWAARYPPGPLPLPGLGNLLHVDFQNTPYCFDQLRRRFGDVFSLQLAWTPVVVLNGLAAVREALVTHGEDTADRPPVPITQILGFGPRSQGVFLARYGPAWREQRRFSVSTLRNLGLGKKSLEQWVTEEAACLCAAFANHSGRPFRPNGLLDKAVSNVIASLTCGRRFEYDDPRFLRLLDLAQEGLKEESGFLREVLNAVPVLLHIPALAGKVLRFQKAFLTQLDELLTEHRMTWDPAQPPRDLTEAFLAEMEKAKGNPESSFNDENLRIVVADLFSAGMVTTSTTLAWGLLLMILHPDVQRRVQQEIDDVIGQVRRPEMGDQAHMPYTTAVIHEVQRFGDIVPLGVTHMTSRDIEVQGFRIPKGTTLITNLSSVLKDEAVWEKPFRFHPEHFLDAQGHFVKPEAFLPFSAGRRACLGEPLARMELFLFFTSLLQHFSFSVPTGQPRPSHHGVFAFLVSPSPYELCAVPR
Description: Recombinant enzymes, 3A4 and 2D6, generated using the ABL yeast expression system were used. […] The assay mixture also included K2HPO4 (pH 7.4; conc. 0.1 M) and NADPH (conc. 1 mM). The incubation time was 30 minutes, and the reference inhibitor was A-naphthoflavone. For CYP2D6, the enzyme amount was 2 pmol per well, and the substrate (7-methoxy-4-(aminomethyl)-coumarin; MAMC) was used at 20 μM. The assay mixture also included K2HPO4 (pH 7.4; conc. 0.1 M) and NADPH (conc. 0.06 mM). The incubation time was 35 minutes, and the reference inhibitor was quinidine.
Briefly, 0.6 μL of serially diluted compound was added to 75 μL water. 10 μL of diluted compound in water was then added to each assay plate. 20 μL of a K2HPO4, enzyme, and substrate mixture was added. After 10 minutes of room temperature pre-incubation, 10 μL of NADPH was added, and the plates were placed at 37° C. for 30 or 35 minutes depending on the enzyme being tested. After the incubation was complete, 20 μL of 0.1% Tris/ACN was added to the plate. The plate was read on a FluorStar fluorescence plate reader.
Data set [2] has as its target hERG (Homo sapiens (Human), UniProt Q12809). Nature of the data set: Human ERG (hERG) assay, hERG currents in hERG-expressing CHO cells. The data set is classed as cell-based. As to conditions: hERG-expressing CHO cells.
Data set [3] has as its target human serotonin transporter (Homo sapiens (Human), UniProt P31645). Nature of the data set: Human SERT (serotonin transporter) uptake assay. The data set is classed as cell-based. The conditions noted are these: read-out: hSERT Ki. The gist of the method: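 HEK293F cells transfected with human SERT, about 60,000 per well, settled for ≥3 h at 37° C before compound addition. Uptake was followed with a fluorescent transporter dye in HBSS with 0.02 M HEPES. Background came from 10 μM fluoxetine, nomifensine was the control, n=3.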

In data set [4] the target is human norepinephrine transporter (Homo sapiens (Human), UniProt P23975). Nature of the data set: Human NET (norepinephrine transporter) uptake assay. The data set is classed as cell-based. The conditions noted are these: read-out: hNET Ki. Summed up: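 HEK293F cells transfected with human NET were thawed, plated at about 60,000 cells/well and held at 37 °C for at least 3 h. Compounds came from 10 mM DMSO stocks, with nomifensine as control, in 1×HBSS/0.02 M HEPES. Uptake was followed with a neurotransmitter transporter dye, dosed as % of vendor reconstitution, in triplicate.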
Chain of human norepinephrine transporter (P23975 whole entry): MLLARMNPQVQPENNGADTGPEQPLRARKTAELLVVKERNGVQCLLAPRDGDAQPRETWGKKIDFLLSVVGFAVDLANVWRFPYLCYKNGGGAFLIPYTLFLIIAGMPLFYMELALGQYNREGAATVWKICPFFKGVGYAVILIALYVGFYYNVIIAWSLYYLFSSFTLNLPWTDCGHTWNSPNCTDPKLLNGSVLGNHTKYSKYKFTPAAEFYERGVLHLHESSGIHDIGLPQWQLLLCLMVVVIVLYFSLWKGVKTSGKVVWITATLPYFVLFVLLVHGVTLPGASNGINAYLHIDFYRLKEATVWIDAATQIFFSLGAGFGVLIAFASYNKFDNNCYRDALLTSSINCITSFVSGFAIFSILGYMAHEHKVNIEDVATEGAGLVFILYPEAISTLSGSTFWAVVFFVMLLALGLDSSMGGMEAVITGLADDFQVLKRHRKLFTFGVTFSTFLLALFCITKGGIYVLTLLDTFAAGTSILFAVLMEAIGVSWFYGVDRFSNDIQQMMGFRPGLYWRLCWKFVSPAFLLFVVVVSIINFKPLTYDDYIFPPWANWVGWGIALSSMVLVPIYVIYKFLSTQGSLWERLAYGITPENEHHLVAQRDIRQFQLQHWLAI

The target of data set [5] is CYP3A4 (Homo sapiens (Human), UniProt P08684). Nature of the data set: Cytochrome P450 inhibition assay, recombinant CYP3A4 (BFC substrate). The class given is in vitro ADME. As to conditions: recombinant enzyme.
Chain of CYP3A4 (P08684 whole entry): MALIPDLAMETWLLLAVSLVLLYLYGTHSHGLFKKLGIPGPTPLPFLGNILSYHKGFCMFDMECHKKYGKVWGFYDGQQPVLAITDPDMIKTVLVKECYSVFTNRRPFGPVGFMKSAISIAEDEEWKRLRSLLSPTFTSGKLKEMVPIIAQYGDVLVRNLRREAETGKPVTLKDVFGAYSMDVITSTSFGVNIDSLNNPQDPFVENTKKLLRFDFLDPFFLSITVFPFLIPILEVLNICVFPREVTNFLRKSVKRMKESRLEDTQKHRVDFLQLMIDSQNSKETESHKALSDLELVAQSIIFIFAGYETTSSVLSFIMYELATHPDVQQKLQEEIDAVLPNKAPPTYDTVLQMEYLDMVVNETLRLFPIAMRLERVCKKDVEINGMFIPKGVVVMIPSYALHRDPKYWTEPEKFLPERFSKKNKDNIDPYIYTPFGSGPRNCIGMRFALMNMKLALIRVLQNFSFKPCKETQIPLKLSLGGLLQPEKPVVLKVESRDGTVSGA
Data set [6] concerns the target human dopamine transporter (Homo sapiens (Human), UniProt Q01959). The experiment in a line: Human DAT (dopamine transporter) uptake assay. The data set is classed as cell-based. The conditions noted are these: read-out: hDAT Ki. The gist of the method:
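Uptake inhibition was measured in HEK293F cells transfected with human DAT, plated at ~60,000 cells/well and settled ≥3 h at 37 °C. Compounds came from 10 mM DMSO stocks. Read-out was uptake of a fluorescent neurotransmitter transporter dye in HBSS with 0.02 M HEPES, with dye level given as % of vendor reconstitution; n=3.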

Data set [7] in a line: pKa of basic centres (Table 1). The class given is physicochemical.
Setting [8] is: first base, e.g., an aliphatic primary, secondary, or tertiary amine, read-out: pKa (Base 1).
[9] abbreviates: first base, e.g., an aliphatic primary, secondary, or tertiary amine.

Chain of hERG (Q12809 whole entry): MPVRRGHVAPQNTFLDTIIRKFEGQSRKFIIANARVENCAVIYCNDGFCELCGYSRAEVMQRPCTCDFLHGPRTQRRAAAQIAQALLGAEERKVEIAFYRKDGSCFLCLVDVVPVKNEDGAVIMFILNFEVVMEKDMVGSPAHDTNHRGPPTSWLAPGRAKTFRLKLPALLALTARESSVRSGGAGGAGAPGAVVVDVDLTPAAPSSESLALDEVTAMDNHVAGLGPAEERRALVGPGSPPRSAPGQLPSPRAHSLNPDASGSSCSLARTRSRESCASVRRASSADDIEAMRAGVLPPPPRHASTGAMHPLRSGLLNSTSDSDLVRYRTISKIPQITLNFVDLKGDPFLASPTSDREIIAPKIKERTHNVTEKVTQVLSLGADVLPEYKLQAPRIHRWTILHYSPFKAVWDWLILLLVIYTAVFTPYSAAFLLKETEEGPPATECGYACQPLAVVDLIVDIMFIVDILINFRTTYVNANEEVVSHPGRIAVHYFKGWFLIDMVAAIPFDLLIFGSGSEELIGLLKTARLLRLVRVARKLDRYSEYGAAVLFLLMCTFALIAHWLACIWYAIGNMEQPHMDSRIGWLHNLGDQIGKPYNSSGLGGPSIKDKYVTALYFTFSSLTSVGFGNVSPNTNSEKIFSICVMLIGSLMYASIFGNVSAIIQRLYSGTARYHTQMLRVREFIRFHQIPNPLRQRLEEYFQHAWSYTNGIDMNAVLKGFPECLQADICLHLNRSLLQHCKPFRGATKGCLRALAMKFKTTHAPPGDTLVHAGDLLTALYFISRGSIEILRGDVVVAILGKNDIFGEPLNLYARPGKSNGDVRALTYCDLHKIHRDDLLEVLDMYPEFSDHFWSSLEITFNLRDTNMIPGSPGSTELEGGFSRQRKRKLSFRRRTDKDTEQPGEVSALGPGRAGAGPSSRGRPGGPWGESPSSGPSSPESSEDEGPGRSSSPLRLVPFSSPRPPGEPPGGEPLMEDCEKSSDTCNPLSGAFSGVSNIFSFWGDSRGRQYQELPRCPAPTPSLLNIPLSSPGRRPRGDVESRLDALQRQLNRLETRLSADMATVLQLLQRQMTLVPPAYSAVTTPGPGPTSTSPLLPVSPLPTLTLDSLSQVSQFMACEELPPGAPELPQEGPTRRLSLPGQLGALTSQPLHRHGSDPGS
Chain of human dopamine transporter (Q01959 whole entry): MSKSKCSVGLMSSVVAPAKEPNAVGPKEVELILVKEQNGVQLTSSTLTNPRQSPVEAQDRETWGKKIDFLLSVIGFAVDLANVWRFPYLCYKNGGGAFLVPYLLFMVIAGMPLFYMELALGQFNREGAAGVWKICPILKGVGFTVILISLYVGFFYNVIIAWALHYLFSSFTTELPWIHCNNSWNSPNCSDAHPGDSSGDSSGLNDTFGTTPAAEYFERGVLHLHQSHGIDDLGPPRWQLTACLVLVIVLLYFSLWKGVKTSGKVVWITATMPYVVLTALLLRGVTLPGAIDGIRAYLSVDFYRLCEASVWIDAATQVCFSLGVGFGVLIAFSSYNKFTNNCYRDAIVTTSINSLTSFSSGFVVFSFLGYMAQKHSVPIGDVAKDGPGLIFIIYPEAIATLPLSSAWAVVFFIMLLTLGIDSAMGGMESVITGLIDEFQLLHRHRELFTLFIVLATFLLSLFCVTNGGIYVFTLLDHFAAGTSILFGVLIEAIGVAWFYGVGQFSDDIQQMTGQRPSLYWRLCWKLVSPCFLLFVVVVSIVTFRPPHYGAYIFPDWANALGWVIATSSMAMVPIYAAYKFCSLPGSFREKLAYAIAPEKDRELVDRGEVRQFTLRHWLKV
Chain of human serotonin transporter (P31645 whole entry): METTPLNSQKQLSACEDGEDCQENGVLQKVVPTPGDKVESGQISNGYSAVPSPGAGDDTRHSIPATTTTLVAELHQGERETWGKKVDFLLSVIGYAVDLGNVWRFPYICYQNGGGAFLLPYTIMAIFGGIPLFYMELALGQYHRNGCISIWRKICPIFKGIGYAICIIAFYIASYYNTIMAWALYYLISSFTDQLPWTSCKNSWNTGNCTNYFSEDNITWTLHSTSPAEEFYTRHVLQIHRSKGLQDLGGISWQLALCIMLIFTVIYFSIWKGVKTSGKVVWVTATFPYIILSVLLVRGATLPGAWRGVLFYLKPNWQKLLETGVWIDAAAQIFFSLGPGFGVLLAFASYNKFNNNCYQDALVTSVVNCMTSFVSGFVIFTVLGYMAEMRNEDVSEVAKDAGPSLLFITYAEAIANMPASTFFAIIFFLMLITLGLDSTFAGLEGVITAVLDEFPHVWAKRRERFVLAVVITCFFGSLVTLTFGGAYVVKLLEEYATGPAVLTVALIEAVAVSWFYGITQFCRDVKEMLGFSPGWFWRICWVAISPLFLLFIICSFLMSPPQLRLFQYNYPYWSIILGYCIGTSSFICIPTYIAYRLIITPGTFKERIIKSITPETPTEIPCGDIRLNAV

The IC50 is the concentration needed to halve the response being measured. Broadly, the Ki is the dissociation constant of the complex between target and ligand, obtained from inhibition or displacement. The term pKa denotes the pH at which an ionisable group is half protonated. As for `NC[C@H](c1ccc2ccccc2c1)[C@@H](O)c1ccncc1Cl` [Compound 95], the IC50 was determined as 410 nM in data set [1], 33000 nM in data set [2] and 11000 nM in data set [5]. For the same compound, the Ki is 36.9 nM in data set [3], 33.5 nM in data set [4] and 30.7 nM in data set [6]. Moreover, in data set [7] (setting [8]), the pKa came out at 8.
As to `CNC[C@@H](c1ccc2ccccc2c1)[C@H](O)c1ccccc1F` [Compound 96], the IC50 in data set [1] came to 1100 nM; in data set [2], 33000 nM; in data set [5], 20000 nM. Besides, the inhibition constant Ki is 9.9 nM in data set [3], 36.8 nM in data set [4] and 158 nM in data set [6]. Moreover, the pKa in data set [7] (setting [8]) came out at 9.7.
Regarding `CNC[C@H](c1ccc(Cl)c(Cl)c1)[C@@H](O)c1ccccc1SC` [Compound 97], the figures for the IC50 in data set [1], in data set [2] and in data set [5] were 180 nM, 8000 nM and 15000 nM, respectively. Moreover, the inhibition constant Ki was 78.4 nM in data set [3], 38.2 nM in data set [4] and 22.6 nM in data set [6]. For the same compound, the pKa in data set [7] (setting [8]) amounted to 9.4.
On to `CNC[C@@H](c1ccc(Cl)c(Cl)c1)[C@H](O)c1cccc(NC(C)=O)c1` [Compound 98], for which the IC50 is 850 nM in data set [1], 33000 nM in data set [2] and 20000 nM in data set [5]. Besides, the Ki in data set [3] was 167 nM; in data set [4], 38.8 nM; in data set [6], 216 nM. For the same compound, the pKa in data set [7] (setting [8]) was 9.4.
For the compound `CNC[C@@H](c1ccc2ccccc2c1)[C@H](O)c1ccccn1` [Compound 99], the IC50 is 3600 nM in data set [1], 33000 nM in data set [2] and at least 20000 nM in data set [5]. In addition, the Ki in data set [3] came to 43.2 nM; in data set [4], 41 nM; in data set [6] it was 287 nM. The pKa in data set [7] (setting [8]) is 9.6; in data set [7] (second base in the same molecule (if present), read-out: pKa (Base 2)), 4.1.
On to `CNC[C@H](c1ccc(Cl)c(Cl)c1)[C@@H](O)c1ccccc1-c1cccs1` [Compound 100], for which the IC50 worked out at 64 nM in data set [1], 21000 nM in data set [2] and 8200 nM in data set [5]. For the same compound, the Ki in data set [3] is 361 nM; in data set [4], 43.8 nM; in data set [6] it was 27.4 nM. In addition, the pKa in data set [7] (setting [8]) amounted to 9.4.
As to `CNC[C@@H](c1ccc(Br)c(Cl)c1)[C@@H](O)c1ccccc1` [Compound 110], the IC50 was 1900 nM in data set [1], 6800 nM in data set [2] and 17000 nM in data set [5]. Besides, the inhibition constant Ki in data set [3] was found to be 677 nM; in data set [4] it was 142 nM; in data set [6], 24 nM. Besides, the pKa in data set [7] (setting [8]) was found to be 9.4.
Regarding `NC[C@@H](c1ccc2ccccc2c1)C(O)c1ccncc1Cl` (some centres unmarked) [Compound 118], the half-inhibitory concentration (IC50) stood at 3900 nM in data set [1], 24000 nM in data set [2] and 20000 nM in data set [5]. Besides, the values for the Ki in data set [3], in data set [4] and in data set [6] were 36.6 nM, 252 nM and 139 nM, respectively. Moreover, in data set [7] (setting [8]), the pKa stood at 8.
For the compound `CNCC(Cc1ccccc1C)c1ccc2ccccc2c1` (centres unmarked) [Compound 134], the IC50 in data set [1] was 220 nM; in data set [2] it was 6200 nM; in data set [5] it was 9900 nM. Besides, the Ki in data set [3] was found to be 7.8 nM; in data set [4], 6 nM; in data set [6], 56.8 nM. For the same compound, the pKa in data set [7] (setting [8]) was 10.1.
With `CNCC(Cc1ccc(C)s1)c1ccc2ccccc2c1` (centres unmarked) [Compound 139], the half-maximal inhibitory concentration (IC50) in data set [1] was determined as 620 nM; in data set [2] it was 3100 nM; in data set [5], 13000 nM. In addition, the inhibition constant Ki in data set [3] worked out at 6.4 nM; in data set [4] it was 5 nM; in data set [6] it was 88.7 nM. For the same compound, the pKa in data set [7] (setting [8]) is 10.
On to `CNC[C@H](Cc1ccccc1O)c1ccc2ccccc2c1` [Compound 140], for which the half-inhibitory concentration (IC50) in data set [1] worked out at 860 nM; in data set [2], 6100 nM; in data set [5] it was 20000 nM. Besides, the Ki in data set [3] was 28.3 nM; in data set [4], 25.9 nM; in data set [6], 91.6 nM. Further, the pKa in data set [7] (setting [8]) came to 10.
With `CNC[C@H](c1ccc2ccccc2c1)[C@H](O)c1ccc2c(c1)OCCO2` [Compound 143], the values for the IC50 in data set [1], in data set [2] and in data set [5] were 160 nM, 15000 nM and 7600 nM, respectively. In addition, the Ki was determined as 7.9 nM in data set [3], 6.6 nM in data set [4] and 106 nM in data set [6]. Besides, the pKa in data set [7] (setting [8]) worked out at 9.7.
Consider `CNC[C@H](c1ccc2ccccc2c1)[C@H](Cl)c1ccccc1` [Compound 146], for which the IC50 in data set [1] is 92 nM; in data set [2] it was 15000 nM; in data set [5], 1300 nM. In addition, the Ki was found to be 10.1 nM in data set [3], 9.3 nM in data set [4] and 144 nM in data set [6]. Further, the pKa in data set [7] (setting [8]) was determined as 9.5.
Turning to `CNC[C@@H](c1ccc(Cl)c(Cl)c1)[C@@H](O)c1ccsc1` [Compound 153], the IC50 in data set [1] was determined as 1400 nM; in data set [2], 1600 nM; in data set [5], 20000 nM. In addition, the Ki was 7.5 nM in data set [3], 3.9 nM in data set [4] and 33.8 nM in data set [6]. The “pKa (Base 1)” value in data set [7] (setting [9]) was found to be 9.5.
On to `CNC[C@@H](c1ccc(Cl)c(Cl)c1)[C@@H](O)c1cccc(SC)c1` [Compound 154], for which the 50% inhibitory concentration (IC50) in data set [1] was 290 nM; in data set [2] it was 2200 nM; in data set [5], 6900 nM. Besides, the Ki was 38.4 nM in data set [3], 37.1 nM in data set [4] and 40.3 nM in data set [6]. Also, the “pKa (Base 1)” value in data set [7] (setting [9]) came out at 9.4.
For `CNC[C@H](c1ccc(Cl)c(Cl)c1)[C@H](O)c1ccccc1SC` [Compound 156], the figures for the IC50 in data set [1], in data set [2] and in data set [5] were 170 nM, 4100 nM and 9500 nM, respectively. Also, the Ki is 22.4 nM in data set [3], 17.2 nM in data set [4] and 48.5 nM in data set [6]. Besides, the pKa in data set [7] (setting [8]) is 9.4.
`CCc1ccccc1[C@@H](O)[C@H](CNC)c1ccc(Cl)c(Cl)c1` [Compound 158]: the half-inhibitory concentration (IC50) in data set [1] amounted to 98 nM; in data set [2] it was 4400 nM; in data set [5], 3800 nM. Further, the figures for the Ki in data set [3], in data set [4] and in data set [6] were 38.6 nM, 6.3 nM and 55.4 nM, respectively. Besides, the pKa in data set [7] (setting [8]) amounted to 9.4.
For the compound `CNC[C@H](c1ccc(Cl)c(Cl)c1)[C@H](O)c1ccccc1OC` [Compound 160], the IC50 amounted to 490 nM in data set [1], 8000 nM in data set [2] and 3500 nM in data set [5]. Moreover, the figures for the Ki in data set [3], in data set [4] and in data set [6] were 9.2 nM, 9.1 nM and 83.5 nM, respectively. In data set [7] (setting [8]), the pKa came to 9.4.
With `CNC[C@H](c1ccc(Cl)c(Cl)c1)[C@H](O)c1ccccc1I` [Compound 164], the figures for the IC50 in data set [1], in data set [2] and in data set [5] were 250 nM, 4100 nM and 5300 nM, respectively. For the same compound, the Ki in data set [3] came out at 78.1 nM; in data set [4], 41.6 nM; in data set [6], 113 nM. For the same compound, the pKa in data set [7] (setting [8]) was determined as 9.4.
For `CNC[C@H](c1ccc(Cl)c(Cl)c1)[C@@H](O)c1cccc(I)c1` [Compound 165], the figures for the IC50 in data set [1], in data set [2] and in data set [5] were 81 nM, 3800 nM and 2900 nM, respectively. The inhibition constant Ki in data set [3] was determined as 341 nM; in data set [4] it was 38.6 nM; in data set [6] it was 118 nM. Besides, the pKa in data set [7] (setting [8]) was 9.4.
For the compound `CNC[C@H](c1ccc(Cl)c(Cl)c1)[C@H](O)c1cccc(OC)n1` [Compound 167], the values for the half-maximal inhibitory concentration (IC50) in data set [1], in data set [2] and in data set [5] were 400 nM, 12000 nM and 20000 nM, respectively. For the same compound, the Ki in data set [3] turned out to be 18.8 nM; in data set [4], 10.8 nM; in data set [6], 132 nM. In addition, in data set [7] (setting [8]), the pKa turned out to be 9.2.
For `CNC[C@@H](c1ccc(Cl)c(Cl)c1)[C@@H](OC)c1cccc(NS(=O)(=O)C(F)(F)F)c1` [Compound 172], the half-inhibitory concentration (IC50) in data set [1] worked out at 970 nM; in data set [2], 4700 nM; in data set [5] it was 200 nM. Besides, the values for the Ki in data set [3], in data set [4] and in data set [6] were 1260 nM, 625 nM and 102 nM, respectively. Also, in data set [7] (setting [8]), the pKa amounted to 9.4.
